How the values were obtained:
[1] = tested on: tight junction permeability, human duodenum monolayer culture; assay: Increased trans-epithelial resistance (TEER) in human organoid monolayer cell cultures; type: cell-based; details: 1 μM apical, baseline corrected
Method: (§1) Basal media (BM) consisted of advanced DMEM/F12 containing 10 mM HEPES (Invitrogen, 15630-080), 1:100 Glutamax (Invitrogen, 35050-061), and 1:100 penicillin/streptomycin (Invitrogen, 15140-122). […] Growth factors used included 50 ng per mL mouse EGF (Peprotech, 315-09), 100 ng per mL mouse noggin (Peprotech, 250-38), 500 ng per mL human R-spondin 1 (R&D, 4645-RS), 100 ng per mL mouse Wnt-3a (R&D, 1324-WN), 20 μM Y-27632 (Tocris, 1254), 10 mM nicotinamide (Sigma, N0636), 500 nM A83-01 (Tocris, 2939), 10 μM SB202190 (Tocris, 1264). Transwells were 0.4 μm pore polyester membrane 24-well Transwell inserts (Corning). Cultures were incubated at 37° C. in 5% CO2.
Human duodenum organoids were cultured in WENRNAS (Wnt, EGF, noggin, R-spondin1, Nicotinamide, A83-01, SB202190) and typically grown for 7-12 days before being used to plate monolayer cultures. […]
Each human duodenum monolayer culture well was washed twice with fresh SBM on the apical side on day 6 or day 7 before dosing. […] Transepithelial electrical resistance (TEER) was used as a quantitative technique to measure of tight junction permeability. TEER values were recorded (MERS00002, Millipore) before dosing and 30 mins and 1 hr after dosing for all wells. […] Baseline corrected TEER for each example compound was compared to the average of the DMSO wells and expressed as a percent TEER of vehicle control.

[2] = tested on: apical acid secretion, human duodenum monolayer culture; assay: Sustained inhibition of apical acid secretion in human organoid monolayer cell cultures (duodenum); type: cell-based; details: 1 μM apical dosing, inhibition of apical acid secretion vs DMSO
[3] = Plasma PK; type: in vivo, Sprague-Dawley rats; details: Sprague-Dawley, rat plasma, oral gavage, nominal dose 15 mg/kg, mean of n=3
Method: Sprague-Dawley rats (n=3) were dosed with test compound by oral gavage. Blood samples were collected at 0.5, 1, 2 and 4 h by retro-orbital bleeds and processed to plasma using K2EDTA as an anticoagulant. Plasma samples were treated with acetonitrile containing an internal standard and precipitated proteins were removed by centrifugation. Supernatants were analyzed by LC-MS/MS and compound concentrations were determined by interpolation from a standard calibration curve prepared in plasma. Accurate recovery of quality control samples was confirmed to accept each analytical run. Table 5 illustrates data from the pharmacokinetic profiling of an example compound, for which pharmacokinetic parameters were determined.

[4] = tested on: apical acid secretion, human ileum monolayer culture; assay: Sustained inhibition of apical acid secretion in human organoid monolayer cell cultures (ileum); type: cell-based; details: 1 μM apical dosing day 6, apical media pH day 8, inhibition of apical acid secretion vs DMSO
Method: as §1
Human ileum organoids were cultured in WENRNAS (Wnt, EGF, noggin, R-spondin1, Nicotinamide, A83-01, SB202190) and typically grown for 7-12 days before being used to plate monolayer cultures. On day 0, organoid cultures embedded in Matrigel were treated with TrypLE Express to break organoids into small pieces and/or single cells. […]
Each human ileum monolayer culture well was washed twice with fresh SBM on the apical side on day 6 before compound dosing. […] On day 8, apical media pH was measured by pH meter, to determine the ability of example compounds to produce sustained inhibition of NHE3 activity in a human monolayer culture system by preventing proton secretion into the apical compartment.

Structure (SMILES): CN(C)[C@H]1Cc2c(Cl)cc(Cl)cc2[C@@H]1Oc1ccc(S(=O)(=O)NCCOCCOCCNC(=O)NCCCCNC(=O)NCCOCCOCCNS(=O)(=O)c2ccc(O[C@H]3c4cc(Cl)cc(Cl)c4C[C@@H]3N(C)C)cc2)cc1 [Example 1, (S,S)—N,N′-(10,17-dioxo-3,6,21,24-tetraoxa-9,11,16,18-tetraazahexacosane-1,26-diyl)bis(4-((1S,2S)-4,6-dichloro-2-(dimethylamino)-2,3-dihydro-1H-inden-1-yloxy)benzenesulfonamide)]
- TEER at 30 minutes (% of Vehicle) ([1]; 30 mins after dosing): B (100-130%)
- TEER at 60 minutes (% of Vehicle) ([1]; 1 hr after dosing): B (100-130%)
- % inhibition (duodenum) [2]: C (>70%)
- Cmax ([3]; LLOQ 0.2 ng/mL): 1 ng/mL
- AUC ([3]; samples 0.5-4 h): < 3 ng·h/mL
- % inhibition (ileum) [4]: B (50-70%)

From US10376481B2, “Compounds and methods for inhibiting NHE-mediated antiport in the treatment of disorders associated with fluid retention or salt overload and gastrointestinal tract disorders” (ARDELYX, INC, priority 2012, dated 2019)
